Tests used:
[1] = test system: pS6K1 in MCF7 (measure of mTORC1 activity); assay: AlphaLISA Ultra pS6K1 assay; assay type: cell-based; conditions: MCF-7 cells, 2 hours compound incubation
Experimental: (§1) Assay Protocol: • 1. […] 12,000˜16,000 cells will be seeded in 36 μL medium per well. • 2. Change the culture medium with fresh medium and incubate for another 2 hours. • 3. Add 12 μL (4λ) compounds into the cell plate by HAMILTON. Final DMSO concentration is 0.5%. Incubate for 2 hours. • 4. Aspirate 38 μL by HAMILTON, 10 μL rest per well. • 5. Add 10 μL 2× lysis buffer using HAMILTON; total volume in wells is 20 μL. Allow cells to shake for 30 min. Cover plate by plastic foil and store plate at −80° C. up to analysis. • 6. […] Add 5 ul acceptor beads into assay plate and incubation for 2 hours • 8. Add 5 ul donor beads and incubation for 2 hours • 9. Count the plate by EnSpire Multimode Plate Reader

[2] = test system: pAKT in MCF7 (measure of mTORC2 activity); assay: AlphaLISA Ultra pAKT assay; assay type: cell-based; conditions: MCF-7 cells, 2 hours compound incubation
Experimental: as §1, with “16,000˜20,000” for “12,000˜16,000”, “(4×)” for “(4λ)”

| SMILES | IC50 ([1]; Homo sapiens, MCF7, 2 h) [nM] | IC50 ([2]; Homo sapiens, MCF7, 2 h) [nM] | IC50 [1] [nM] | IC50 [2] [nM] |
| --- | --- | --- | --- | --- |
| Cc1c(CN2CCN(c3ccccc3Cl)CC2)cc(C(=O)N2CCN(c3ccc(F)c(Cl)c3)CC2)n1C [Example I-82, (4-(3-chloro-4-fluorophenyl)piperazin-1-yl)(4-((4-(2-chlorophenyl)piperazin-1-yl)methyl)-1,5-dimethyl-1H-pyrrol-2-yl)methanone] | 1000 to 3000 | > 10000 |  |  |
| Cn1c(C(=O)N2CCN(c3ccccc3)CC2)cc(CN2CCN(c3ccccc3Cl)CC2)c1C#N [Example I-36] | 10 to 1000 | > 10000 |  |  |
| Cc1c(CN2CCN(c3ncccc3Cl)CC2)cc(C(=O)N2CCN(c3cccc(Cl)c3)C[C@@H]2C)n1C [Example I-90, (S)-(4-(3-chlorophenyl)-2-methylpiperazin-1-yl)(4-((4-(3-chloropyridin-2-yl)piperazin-1-yl)methyl)-1,5-dimethyl-1H-pyrrol-2-yl)methanone] | 1000 to 3000 | > 3000 |  |  |
| Cc1c(CN2CCCN(c3ccccc3Cl)CC2)cc(C(=O)N2CCN(c3cccc(C#N)c3)C[C@@H]2C)n1C [Example I-41, (S)-3-(4-(4-((4-(2-chlorophenyl)-1,4-diazepan-1-yl)methyl)-1,5-dimethyl-1H-pyrrole-2-carbonyl)-3-methylpiperazin-1-yl)benzonitrile] | 1000 to 3000 | > 10000 |  |  |
| Cc1nc(C#N)c(N2CCN(C(=O)c3cc(CN4CCN(c5ccccc5C#N)CC4)c(C)n3C)CC2)o1 [Example I-22] | 1000 to 3000 | > 10000 |  |  |
| Cc1c(CN2CCN(c3ccccc3Cl)CC2)cc(C(=O)N2CCn3c(nc4ccccc43)C2)n1C [Example I-91, (4-((4-(2-chlorophenyl)piperazin-1-yl)methyl)-1,5-dimethyl-1H-pyrrol-2-yl)(3,4-dihydrobenzo[4,5]imidazo[1,2-a]pyrazin-2(1H)-yl)methanone] | 10 to 1000 | > 5000 |  |  |
| Cc1c(CN2CCCN(c3ccccc3Cl)CC2)cc(C(=O)N2CCN(c3ccc(F)cc3)C[C@@H]2C)n1C [Example I-47, (S)-(4-((4-(2-chlorophenyl)-1,4-diazepan-1-yl)methyl)-1,5-dimethyl-1H-pyrrol-2-yl)(4-(4-fluorophenyl)-2-methylpiperazin-1-yl)methanone] | 1000 to 3000 | > 10000 |  |  |
| Cc1c(CN2CCN(c3ccccc3Cl)CC2)cc(C(=O)N2CCN(c3cc(F)ccc3C#N)C[C@@H]2C)n1C [Example I-86, (S)-2-(4-(4-((4-(2-chlorophenyl)piperazin-1-yl)methyl)-1,5-dimethyl-1H-pyrrole-2-carbonyl)-3-methylpiperazin-1-yl)-4-fluorobenzonitrile] | 10 to 1000 | > 10000 |  |  |
| C[C@H]1CN(c2cccc(C#N)c2)CCN1C(=O)c1cc(CN2CCN(c3ccccc3C#N)CC2)cn1C [Example I-57] | 10 to 1000 | > 3000 |  |  |
| Cc1c(CN2CCN(c3ncccc3Cl)CC2)cc(C(=O)N2CCN(c3ccccn3)CC2)n1C [Example I-2] |  |  | 1000 to 3000 | > 10000 |
| Cc1c(CN2CCN(c3ccccc3C#N)CC2)cc(C(=O)N2CCN(c3cc(F)c(F)cc3C#N)CC2)n1C [Example I-4] | 10 to 1000 | > 1000 |  |  |
| Cc1c(CN2CCN(c3ccccc3C#N)CC2)cc(C(=O)N2CCCN(c3ccc(F)cc3)CC2)n1C [Example I-50, 2-(4-((5-(4-(4-Fluorophenyl)-1,4-diazepane-1-carbonyl)-1,2-dimethyl-1H-pyrrol-3-yl)methyl)piperazin-1-yl)benzonitrile] | 1000 to 3000 | > 10000 |  |  |
| Cc1c(CN2CCN(c3ncccc3Cl)CC2)cc(C(=O)N2CCN(c3ccc(F)cc3)C[C@@H]2C)n1C [Example I-92, (S)-(4-((4-(3-chloropyridin-2-yl)piperazin-1-yl)methyl)-1,5-dimethyl-1H-pyrrol-2-yl)(4-(4-fluorophenyl)-2-methylpiperazin-1-yl)methanone] | 10 to 1000 | > 1000 |  |  |
| Cc1c(CN2CCN(c3ccccc3Cl)CC2)cc(C(=O)N2CCN(c3cnccn3)C[C@@H]2C)n1C [Example I-51, (S)-(4-((4-(2-chlorophenyl)piperazin-1-yl)methyl)-1,5-dimethyl-1H-pyrrol-2-yl)(2-methyl-4-(pyrazin-2-yl)piperazin-1-yl)methanone] | 10 to 1000 | > 10000 |  |  |
| Cc1c(CN2CCN(c3ccccc3C#N)CC2)cc(C(=O)N2CCN(c3ccc4ncn(C)c4c3)CC2)n1C [Example I-48] | 3000 to 10000 | > 10000 |  |  |
| Cc1c(C(C)N2CCN(c3ccccc3Cl)CC2)cc(C(=O)N2CCN(c3ccc(F)cc3)C[C@@H]2C)n1C (stereo partly drawn) [Example I-46, (4-(1-(4-(2-Chlorophenyl)piperazin-1-yl)ethyl)-1,5-dimethyl-1H-pyrrol-2-yl)((S)-4-(4-fluorophenyl)-2-methylpiperazin-1-yl)methanone] | 1000 to 3000 | > 10000 |  |  |
| C[C@H]1CN(c2cc(F)ccc2C#N)CCN1C(=O)c1cc(CN2CCN(c3ccccc3Cl)CC2)cn1C [Example I-87, (S)-2-(4-(4-((4-(2-chlorophenyl)piperazin-1-yl)methyl)-1-methyl-1H-pyrrole-2-carbonyl)-3-methylpiperazin-1-yl)-4-fluorobenzonitrile] | 10 to 1000 | > 5000 |  |  |
| Cc1c(CN2CCN(c3ccccc3Cl)CC2)cc(C(=O)N2CCN(c3cc(Cl)ccn3)CC2)n1C [Example I-71] | 10 to 1000 | > 3000 |  |  |
| Cc1c(CN2CCN(c3ccccc3C#N)CC2)cc(C(=O)N2CCN(c3oc(C4CC4)nc3C#N)CC2)n1C [Example I-14] | 10 to 1000 | > 10000 |  |  |
| Cc1c(CN2CCN(c3ccccc3C#N)CC2)cc(C(=O)N2CCN(c3ccccc3)CC2)n1C [Example I-54] | 10 to 1000 | > 1000 |  |  |
| COc1cccc(N2CCN(C(=O)c3cc(CN4CCN(c5ccccc5C#N)CC4)c(C)n3C)CC2)n1 [Example I-69] | 10 to 1000 | > 3000 |  |  |
| C[C@H]1CN(c2ccccc2C#N)CCN1C(=O)c1cc(CN2CCN(c3ccccc3C#N)CC2)cn1C [Example I-58] | 10 to 1000 | > 10000 |  |  |
| Cc1c(CN2CCN(c3ccccc3C#N)CC2)cc(C(=O)N2CCN(c3ccccn3)C[C@@H]2C)n1C [Example I-42] | 10 to 1000 | > 3000 |  |  |

Results, then the molecule that gave them:

| IC50 ([1]; Homo sapiens, MCF7, 2 h) [nM] | IC50 ([2]; Homo sapiens, MCF7, 2 h) [nM] | IC50 [1] [nM] | IC50 [2] [nM] | SMILES |
| --- | --- | --- | --- | --- |
| 1000 to 3000 | > 10000 |  |  | COCCn1cc(CN2CCN(c3ccccc3C#N)CC2)cc1C(=O)N1CCN(c2ccccc2C#N)CC1 [Example I-151] |
| 10 to 1000 | > 3000 |  |  | Cc1c(CN2CCN(c3ccccc3Cl)CC2)cc(C(=O)N2CCN(c3ccc(F)cc3)C[C@@H]2C)n1C [Example I-95, (S)-(4-((4-(2-chlorophenyl)piperazin-1-yl)methyl)-1,5-dimethyl-1H-pyrrol-2-yl)(4-(4-fluorophenyl)-2-methylpiperazin-1-yl)methanone] |
| 10 to 1000 | > 5000 |  |  | C[C@H]1CN(c2cc(F)cc(F)c2)CCN1C(=O)c1cc(CN2CCN(c3ccccc3Cl)CC2)cn1C [Example I-94, (S)-(4-((4-(2-chlorophenyl)piperazin-1-yl)methyl)-1-methyl-1H-pyrrol-2-yl)(4-(3,5-difluorophenyl)-2-methylpiperazin-1-yl)methanone] |
| 10 to 1000 | > 1000 |  |  | C[C@H]1CN(c2cccc(C#N)c2)CCN1C(=O)c1cc(CN2CCN(c3ccccc3Cl)CC2)cn1C [Example I-123, (S)-3-(4-(4-((4-(2-chlorophenyl)piperazin-1-yl)methyl)-1-methyl-1H-pyrrole-2-carbonyl)-3-methylpiperazin-1-yl)benzonitrile] |
| 10 to 1000 | > 1000 |  |  | C[C@H]1CN(c2ccccc2C#N)CCN1C(=O)c1cc(CN2CCN(c3ccccc3Cl)CC2)cn1C [Example I-121, (S)-2-(4-(4-((4-(2-chlorophenyl)piperazin-1-yl)methyl)-1-methyl-1H-pyrrole-2-carbonyl)-3-methylpiperazin-1-yl)benzonitrile] |
| 1000 to 3000 | > 10000 |  |  | COCCn1cc(CN2CCN(c3ccccc3Cl)CC2)cc1C(=O)N1CCN(c2ccccc2)CC1 [Example I-152] |
| 1000 to 3000 | > 10000 |  |  | CC(=O)OCCn1cc(CN2CCN(c3ccccc3Cl)CC2)cc1C(=O)N1CCN(c2ccccc2)CC1 [Example I-148] |
| 10 to 1000 | > 3000 |  |  | Cn1cc(CN2CCN(c3ccccc3C#N)CC2)cc1C(=O)N1CCN(c2ccccc2)CC1 [Example I-124, 2-(4-((1-methyl-5-(4-phenylpiperazine-1-carbonyl)-1H-pyrrol-3-yl)methyl)piperazin-1-yl)benzonitrile] |
| 1000 to 3000 | > 10000 |  |  | Cn1cc(CN2CCN(c3ccc(F)cc3Cl)CC2)cc1C(=O)N1CCN(c2ccc(F)cc2)CC1 [Example I-127] |
| 1000 to 3000 | > 3000 |  |  | Cn1cc(CN2CCN(c3ncccc3Cl)CC2)cc1C(=O)N1CCN(c2ccccc2)CC1 [Example I-119, (4-((4-(3-chloropyridin-2-yl)piperazin-1-yl)methyl)-1-methyl-1H-pyrrol-2-yl)(4-phenylpiperazin-1-yl)methanone] |
| 1000 to 3000 | > 10000 |  |  | Cn1cc(CNC2CCN(c3ccccc3Cl)CC2)cc1C(=O)N1CCN(c2ccc(F)cc2)CC1 [Example I-129] |
